Counter-ions that a name gives are not always drawn. Some results are limits rather than exact numbers.

Consider 19 molecules from patent US9982019B2, “Glycopeptide compound or pharmaceutical salt thereof and method for preparing same, and pharmaceutical compositions and applications thereof” (priority 2012, dated 2018).

The test system of experiment [1] is Feces enterococci (VSE clinical isolates: MEFA 0039). As to the kind of experiment: In vitro antibacterial activity, agar two times dilution method, MIC. The experiment is classed as cell-based. The conditions noted are these: for MIC Values of Compounds, Enterococci: agar dilution, VSE clinical isolate MEFA 0039. The text has this:
(§1) Testing results of in vitro antibacterial activity of some target compounds of the present invention are as follows:
(§2) Drugs: firstly being dissolved in DMSO, and then being diluted to an appropriate concentration with sterile water, and afterwards successively being diluted for twice.
(§3) Determination: referencing the standard of CSSI 2008 version, using a agar two times dilution method, determine the minimum inhibitory concentration (MIC values).
(§4) Feces enterococci (VSE clinical isolates: MEFA 0039); Streptococcus pneumoniae (PISP: ATCC 49619).
(§5) 3. Positive Control Drug is Vancomycin Hydrochloride.
In general terms: In agar dilution the substance is mixed into plates at graded concentrations.

The test system of experiment [2] is Streptococcus pneumoniae (PISP: ATCC 49619). The experiment is described as above. The class given is cell-based. As to conditions: for MIC Values of Compounds, Streptococcus pneumoniae: agar dilution, PISP ATCC 49619; for activity against streptococcus pneumoniae relative to vancomycin: compared with positive control vancomycin.
Excerpt: as §1, §2, §3, §4, §5

With `CNC(CC(C)C)C(=O)NC1C(=O)NC(CC(N)=O)C(=O)NC2C(=O)NC3C(=O)NC(C(=O)NC(C(=O)O)c4cc(O)c(CN5CCOCC5)c(O)c4-c4cc3ccc4O)C(OC3CC(C)(N)C(O)C(C)O3)c3ccc(c(Cl)c3)Oc3cc2cc(c3OC2OC(CO)C(O)C(O)C2OC2CC(C)(NCc3ccc(C(C)C)cc3)C(O)C(C)O2)Oc2ccc(cc2Cl)C1O` (stereo not shown) [Compound I13], in experiment [1], the “MIC Values of Compounds, Enterococci” value was 1 µg/mL. Besides, the “MIC Values of Compounds, Streptococcus pneumoniae” value in experiment [2] came out at 0.25 µg/mL.
For the molecule `CCCCNCc1c(O)cc2c(c1O)-c1cc(ccc1O)C1NC(=O)C3NC(=O)C(CC(N)=O)NC(=O)C(N4CN(C)C(CC(C)C)C4=O)C(O)c4ccc(c(Cl)c4)Oc4cc3cc(c4OC3OC(CO)C(O)C(O)C3OC3CC(C)(N)C(O)C(C)O3)Oc3ccc(cc3Cl)C(OC3CC(C)(N)C(O)C(C)O3)C(NC1=O)C(=O)NC2C(=O)O` (stereo not shown) [II1], the “MIC Values of Compounds, Enterococci” value in experiment [1] was found to be 0.25 µg/mL. For the same molecule, the “MIC Values of Compounds, Streptococcus pneumoniae” value in experiment [2] is 0.125 µg/mL.
The like results for `CCN(CC)Cc1c(O)cc2c(c1O)-c1cc(ccc1O)C1NC(=O)C3NC(=O)C(CC(N)=O)NC(=O)C(N4CN(C)C(CC(C)C)C4=O)C(O)c4ccc(c(Cl)c4)Oc4cc3cc(c4OC3OC(CO)C(O)C(O)C3OC3CC(C)(NCc4ccc(OC)cc4)C(O)C(C)O3)Oc3ccc(cc3Cl)C(OC3CC(C)(N)C(O)C(C)O3)C(NC1=O)C(=O)NC2C(=O)O` (stereo not shown) [II8] were, in that order, 1 µg/mL and 0.25 µg/mL.
As a reminder, the MIC is the lowest concentration that inhibits growth of the organism. `CN[C@H](CC(C)C)C(=O)N[C@H]1C(=O)N[C@@H](CC(N)=O)C(=O)N[C@H]2C(=O)N[C@H]3C(=O)N[C@H](C(=O)N[C@H](C(=O)O)c4cc(O)cc(O)c4-c4cc3ccc4O)[C@H](O)c3ccc(c(Cl)c3)Oc3cc2cc(c3O[C@@H]2O[C@H](CO)[C@@H](O)[C@H](O)[C@H]2O[C@H]2C[C@](C)(N)[C@H](O)[C@H](C)O2)Oc2ccc(cc2Cl)[C@H]1O` [vancomycin hydrochloride, reference compound]: the MIC worked out at 0.25 µg/mL in experiment [1] (read-out: MIC Values of Compounds, Enterococci) and 0.125 µg/mL in experiment [2] (Streptococcus pneumoniae, ATCC49619, read-out: MIC Values of Compounds, Streptococcus pneumoniae).
For `CCN(CC)Cc1c(O)cc2c(c1O)-c1cc(ccc1O)C1NC(=O)C3NC(=O)C(CC(N)=O)NC(=O)C(N4CN(C)C(CC(C)C)C4=O)C(O)c4ccc(c(Cl)c4)Oc4cc3cc(c4OC3OC(CO)C(O)C(O)C3OC3CC(C)(NCc4ccccc4Br)C(O)C(C)O3)Oc3ccc(cc3Cl)C(OC3CC(C)(N)C(O)C(C)O3)C(NC1=O)C(=O)NC2C(=O)O` (stereo not shown) [II2], in experiment [1], the “MIC Values of Compounds, Enterococci” value is 2 µg/mL. For the same molecule, the “MIC Values of Compounds, Streptococcus pneumoniae” value in experiment [2] came out at 0.5 µg/mL.
Consider `CNC(CC(C)C)C(=O)NC1C(=O)NC(CC(N)=O)C(=O)NC2C(=O)NC3C(=O)NC(C(=O)NC(C(=O)O)c4cc(O)c(CN5CCOCC5)c(O)c4-c4cc3ccc4O)C(OC3CC(C)(N)C(O)C(C)O3)c3ccc(c(Cl)c3)Oc3cc2cc(c3OC2OC(CO)C(O)C(O)C2OC2CC(C)(NCc3ccc(OC)cc3)C(O)C(C)O2)Oc2ccc(cc2Cl)C1O` (stereo not shown) [Compound I12], for which the “MIC Values of Compounds, Enterococci” value in experiment [1] amounted to 2 µg/mL. Also, in experiment [2], the “MIC Values of Compounds, Streptococcus pneumoniae” value came to 1 µg/mL.
As to `CCCCNCc1c(O)cc2c(c1O)-c1cc(ccc1O)C1NC(=O)C3NC(=O)C(CC(N)=O)NC(=O)C(N4CN(C)C(CC(C)C)C4=O)C(O)c4ccc(c(Cl)c4)Oc4cc3cc(c4OC3OC(CO)C(O)C(O)C3OC3CC(C)(NCc4ccccc4Br)C(O)C(C)O3)Oc3ccc(cc3Cl)C(OC3CC(C)(N)C(O)C(C)O3)C(NC1=O)C(=O)NC2C(=O)O` (stereo not shown) [II3], in experiment [1], the “MIC Values of Compounds, Enterococci” value was determined as 2 µg/mL. Also, the “MIC Values of Compounds, Streptococcus pneumoniae” value in experiment [2] was determined as 0.25 µg/mL.
Turning to `CNC(CC(C)C)C(=O)NC1C(=O)NC(CC(N)=O)C(=O)NC2C(=O)NC3C(=O)NC(C(=O)NC(C(=O)O)c4cc(O)c(CN5CCOCC5)c(O)c4-c4cc3ccc4O)C(OC3CC(C)(N)C(O)C(C)O3)c3ccc(c(Cl)c3)Oc3cc2cc(c3OC2OC(CO)C(O)C(O)C2OC2CC(C)(NCc3ccc(Br)cc3)C(O)C(C)O2)Oc2ccc(cc2Cl)C1O` (stereo not shown) [Compound I9], the “MIC Values of Compounds, Enterococci” value in experiment [1] was determined as 0.25 µg/mL. Also, in experiment [2], the “MIC Values of Compounds, Streptococcus pneumoniae” value is at most 0.031 µg/mL and the “activity against streptococcus pneumoniae relative to vancomycin” value is “more four times than vancomycin”.
Turning to `CCCCNCc1c(O)cc2c(c1O)-c1cc(ccc1O)C1NC(=O)C3NC(=O)C(CC(N)=O)NC(=O)C(N4CN(C)C(CC(C)C)C4=O)C(O)c4ccc(c(Cl)c4)Oc4cc3cc(c4OC3OC(CO)C(O)C(O)C3OC3CC(C)(NCc4cccc(Br)c4)C(O)C(C)O3)Oc3ccc(cc3Cl)C(OC3CC(C)(N)C(O)C(C)O3)C(NC1=O)C(=O)NC2C(=O)O` (stereo not shown) [II5], the “MIC Values of Compounds, Enterococci” value in experiment [1] stood at 1 µg/mL. In addition, the “MIC Values of Compounds, Streptococcus pneumoniae” value in experiment [2] worked out at 0.25 µg/mL.
The like results for `CCCCNCc1c(O)cc2c(c1O)-c1cc(ccc1O)C1NC(=O)C3NC(=O)C(CC(N)=O)NC(=O)C(NC(=O)C(CC(C)C)NC)C(O)c4ccc(c(Cl)c4)Oc4cc3cc(c4OC3OC(CO)C(O)C(O)C3OC3CC(C)(NCc4ccccc4Br)C(O)C(C)O3)Oc3ccc(cc3Cl)C(OC3CC(C)(N)C(O)C(C)O3)C(NC1=O)C(=O)NC2C(=O)O` (stereo not shown) [Compound I7] were, in that order, 1 µg/mL and 0.5 µg/mL.
As for `CNC(CC(C)C)C(=O)NC1C(=O)NC(CC(N)=O)C(=O)NC2C(=O)NC3C(=O)NC(C(=O)NC(C(=O)O)c4cc(O)c(CNCP(=O)(O)O)c(O)c4-c4cc3ccc4O)C(OC3CC(C)(N)C(O)C(C)O3)c3ccc(c(Cl)c3)Oc3cc2cc(c3OC2OC(CO)C(O)C(O)C2OC2CC(C)(N)C(O)C(C)O2)Oc2ccc(cc2Cl)C1O` (stereo not shown) [Compound I1], the “MIC Values of Compounds, Enterococci” value in experiment [1] amounted to 0.5 µg/mL. In addition, the “MIC Values of Compounds, Streptococcus pneumoniae” value in experiment [2] stood at 0.125 µg/mL.
`CCCCNCc1c(O)cc2c(c1O)-c1cc(ccc1O)C1NC(=O)C3NC(=O)C(CC(N)=O)NC(=O)C(NC(=O)C(CC(C)C)NC)C(O)c4ccc(c(Cl)c4)Oc4cc3cc(c4OC3OC(CO)C(O)C(O)C3OC3CC(C)(NCc4ccc(Br)cc4)C(O)C(C)O3)Oc3ccc(cc3Cl)C(OC3CC(C)(N)C(O)C(C)O3)C(NC1=O)C(=O)NC2C(=O)O` (stereo not shown) [Compound I11]: in experiment [1], the “MIC Values of Compounds, Enterococci” value was 1 µg/mL. Also, the “MIC Values of Compounds, Streptococcus pneumoniae” value in experiment [2] was 0.25 µg/mL.
For `CNC(CC(C)C)C(=O)NC1C(=O)NC(CC(N)=O)C(=O)NC2C(=O)NC3C(=O)NC(C(=O)NC(C(=O)O)c4cc(O)c(CN5CCOCC5)c(O)c4-c4cc3ccc4O)C(OC3CC(C)(N)C(O)C(C)O3)c3ccc(c(Cl)c3)Oc3cc2cc(c3OC2OC(CO)C(O)C(O)C2OC2CC(C)(NCc3cccc(Br)c3)C(O)C(C)O2)Oc2ccc(cc2Cl)C1O` (stereo not shown) [Compound I8], the “MIC Values of Compounds, Enterococci” value in experiment [1] was found to be 0.25 µg/mL. Moreover, the “MIC Values of Compounds, Streptococcus pneumoniae” value in experiment [2] was found to be 0.063 µg/mL.
For the molecule `CNC(CC(C)C)C(=O)NC1C(=O)NC(CC(N)=O)C(=O)NC2C(=O)NC3C(=O)NC(C(=O)NC(C(=O)O)c4cc(O)c(CN5CCOCC5)c(O)c4-c4cc3ccc4O)C(OC3CC(C)(N)C(O)C(C)O3)c3ccc(c(Cl)c3)Oc3cc2cc(c3OC2OC(CO)C(O)C(O)C2OC2CC(C)(N)C(O)C(C)O2)Oc2ccc(cc2Cl)C1O` (stereo not shown) [Compound I2], the “MIC Values of Compounds, Enterococci” value in experiment [1] stood at 0.5 µg/mL. For the same molecule, in experiment [2], the “MIC Values of Compounds, Streptococcus pneumoniae” value worked out at 0.063 µg/mL.
The like results for `CC(C)CC1C(=O)N(C2C(=O)NC(CC(N)=O)C(=O)NC3C(=O)NC4C(=O)NC(C(=O)NC(C(=O)O)c5cc(O)c(CN6CCOCC6)c(O)c5-c5cc4ccc5O)C(OC4CC(C)(N)C(O)C(C)O4)c4ccc(c(Cl)c4)Oc4cc3cc(c4OC3OC(CO)C(O)C(O)C3OC3CC(C)(NCc4cccc(Br)c4)C(O)C(C)O3)Oc3ccc(cc3Cl)C2O)CN1C` (stereo not shown) [II6] were, in that order, 2 µg/mL and 0.25 µg/mL.
The like results for `CNC(CC(C)C)C(=O)NC1C(=O)NC(CC(N)=O)C(=O)NC2C(=O)NC3C(=O)NC(C(=O)NC(C(=O)O)c4cc(O)c(CN5CCOCC5)c(O)c4-c4cc3ccc4O)C(OC3CC(C)(N)C(O)C(C)O3)c3ccc(c(Cl)c3)Oc3cc2cc(c3OC2OC(CO)C(O)C(O)C2OC2CC(C)(NCc3ccccc3Br)C(O)C(C)O2)Oc2ccc(cc2Cl)C1O` (stereo not shown) [Compound I5] were, in that order, 0.25 µg/mL and 0.125 µg/mL.
The like results for `CCN(CC)Cc1c(O)cc2c(c1O)-c1cc(ccc1O)C1NC(=O)C3NC(=O)C(CC(N)=O)NC(=O)C(NC(=O)C(CC(C)C)NC)C(O)c4ccc(c(Cl)c4)Oc4cc3cc(c4OC3OC(CO)C(O)C(O)C3OC3CC(C)(NCc4ccccc4Br)C(O)C(C)O3)Oc3ccc(cc3Cl)C(OC3CC(C)(N)C(O)C(C)O3)C(NC1=O)C(=O)NC2C(=O)O` (stereo not shown) [Compound I6] were, in that order, 1 µg/mL and 0.25 µg/mL.
With `CCCCNCc1c(O)cc2c(c1O)-c1cc(ccc1O)C1NC(=O)C3NC(=O)C(CC(N)=O)NC(=O)C(NC(=O)C(CC(C)C)NC)C(O)c4ccc(c(Cl)c4)Oc4cc3cc(c4OC3OC(CO)C(O)C(O)C3OC3CC(C)(NCc4ccc(C(C)C)cc4)C(O)C(C)O3)Oc3ccc(cc3Cl)C(OC3CC(C)(N)C(O)C(C)O3)C(NC1=O)C(=O)NC2C(=O)O` (stereo not shown) [Compound I14], the “MIC Values of Compounds, Enterococci” value in experiment [1] is 0.5 µg/mL. In addition, in experiment [2], the “MIC Values of Compounds, Streptococcus pneumoniae” value is at most 0.031 µg/mL and the “activity against streptococcus pneumoniae relative to vancomycin” value was “more four times than vancomycin”.
Consider `CCN(CC)Cc1c(O)cc2c(c1O)-c1cc(ccc1O)C1NC(=O)C3NC(=O)C(CC(N)=O)NC(=O)C(N4CN(C)C(CC(C)C)C4=O)C(O)c4ccc(c(Cl)c4)Oc4cc3cc(c4OC3OC(CO)C(O)C(O)C3OC3CC(C)(NCc4cccc(Br)c4)C(O)C(C)O3)Oc3ccc(cc3Cl)C(OC3CC(C)(N)C(O)C(C)O3)C(NC1=O)C(=O)NC2C(=O)O` (stereo not shown) [II4], for which, in experiment [1], the “MIC Values of Compounds, Enterococci” value came out at 2 µg/mL. Also, in experiment [2], the “MIC Values of Compounds, Streptococcus pneumoniae” value is 0.25 µg/mL.
